Calls of active or inactive are those of the source. The rule behind the calls is not given here.

Data set [1] relates to Mus musculus. As to the kind of experiment: Anti-NASH activity against high fat (HF) diet-induced nonalcoholic steatohepatitis in leptin-deficient ob/ob mouse model assessed as reduction in serum ALT level at 3 mg/kg, po administered once daily from week 5 to 10. Format: functional, organism-based.
Data set [2] is described as follows: Oral bioavailability in male Sprague-Dawley rat at 5 mg/kg measured by LC-MS/MS analysis. Format: ADME, organism-based. Particulars: in vivo.
In data set [3] the test system is Mus musculus. Put plainly: Anti-NASH activity against high fat (HF) diet-induced nonalcoholic steatohepatitis in leptin-deficient ob/ob mouse model assessed as reduction in liver cholesterol level at 3 mg/kg, po administered once daily from week 5 to 10. Format: functional, organism-based.
A short description of data set [4]: Volume of distribution at steady state in male Sprague-Dawley rat at 1 mg/kg, iv measured by LC-MS/MS analysis. Particulars: in vivo, read-out: Vdss. Format: ADME, organism-based.
Data set [5] is described as follows: Cmax in male Sprague-Dawley rat at 5 mg/kg, po measured by LC-MS/MS analysis. To be noted: in vivo. Format: ADME, organism-based. Details: dose 5 mg/kg, route po.
For data set [6], the system named is Mus musculus. As to the kind of experiment: Anti-NASH activity against high fat (HF) diet-induced nonalcoholic steatohepatitis in leptin-deficient ob/ob mouse model assessed as reduction in serum TG level at 3 mg/kg, po administered once daily from week 5 to 10. Format: functional, organism-based.
Data set [7] in a line: Clearance in male Sprague-Dawley rat at 1 mg/kg, iv measured by LC-MS/MS analysis. Format: ADME, organism-based. To be noted: in vivo.
Data set [8] in a line: AUC (0 to t) in male Sprague-Dawley rat at 5 mg/kg, po measured by LC-MS/MS analysis. Format: ADME, organism-based. Particulars: in vivo. Details: dose 5 mg/kg, route po.
The nature of data set [9]: AUC (0 to t) in male Sprague-Dawley rat at 1 mg/kg, iv measured by LC-MS/MS analysis. Format: ADME, organism-based. The arrangement: dose 1 mg/kg, route iv. Particulars: in vivo.
Data set [10] in a line: Half-life in male Sprague-Dawley rat at 5 mg/kg, po measured by LC-MS/MS analysis. Format: ADME, organism-based. Particulars: in vivo.
For data set [11], the target named is T1, Bile acid receptor (Homo sapiens, UniProt Q96RI1).
T1 sequence (Q96RI1 whole entry): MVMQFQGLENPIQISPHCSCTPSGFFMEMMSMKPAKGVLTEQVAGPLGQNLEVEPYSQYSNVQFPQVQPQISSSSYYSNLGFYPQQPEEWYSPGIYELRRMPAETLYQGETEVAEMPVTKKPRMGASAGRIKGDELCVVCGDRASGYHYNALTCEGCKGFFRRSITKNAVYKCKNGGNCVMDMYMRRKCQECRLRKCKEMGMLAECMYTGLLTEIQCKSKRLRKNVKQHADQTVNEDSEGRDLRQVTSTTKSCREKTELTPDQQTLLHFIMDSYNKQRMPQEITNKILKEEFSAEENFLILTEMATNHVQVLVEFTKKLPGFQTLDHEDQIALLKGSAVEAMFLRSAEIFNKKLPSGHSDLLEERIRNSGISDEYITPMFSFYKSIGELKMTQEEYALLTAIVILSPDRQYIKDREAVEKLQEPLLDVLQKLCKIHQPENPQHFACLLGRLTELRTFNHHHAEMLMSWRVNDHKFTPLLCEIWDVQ
Put plainly: Agonist activity at FXR-LBD (unknown origin) assessed as induction of coactivator SRC-1 peptide recruitment measured by TR-FRET assay. Background: In TR-FRET formats the signal depends on donor and acceptor labels being close together.

In data set [12] the target is T1, Bile acid receptor. Put plainly: Agonist activity at human FXR expressed in HEK293T cells by luciferase reporter assay. Format: cell-based. For orientation: Reporter assays use an easily measured gene product as a stand-in for the process of interest.
Data set [13] is described as follows: Toxicity in alpha-naphthyl- isothiocyanate (ANIT)-induced cholestatic injury model of Sprague-Dawley rat assessed as effect on […] death. Particulars: in vivo.
Data set [14] is described as follows: Toxicity in alpha-naphthyl- isothiocyanate (ANIT)-induced cholestatic injury model of Sprague-Dawley rat assessed as effect on […] death at 10 mg/kg, po administered once daily for 4 days. Format: organism-based. To be noted: in vivo, 96 h, time 4 day.

For `CC1=Cc2ccc(C(=O)O)cc2Oc2ccc(OCc3c(-c4c(Cl)cccc4Cl)noc3C3CC3)nc21`, the outcome in the data set on Mus musculus [1], in the data set with Mus musculus [3] and in the data set on Mus musculus [6] was Active. The bioavailability (commonly the share of a dose that reaches the circulation, judged against a reference dose that is usually intravenous) in data set [2] came out at 46.2%. The Vd in data set [4] turned out to be 0.35 L/kg. The highest level in [5] (Cmax) was 2210 ng/mL. The clearance (in general, the rate of elimination divided by the concentration) in [7] stood at 17.5 mL/min/kg. Also, the AUC(0-t) – broadly, exposure summed from dosing to a finite time, without extrapolation to infinity – in data set [8] amounted to 1180 ng·h/mL; in data set [9] it was 963 ng·h/mL. The half-life (usually how long it takes for the measured level to halve) in data set [10] is 72 min.

Take `O=C(O)c1ccc2c(c1)Oc1ccc(OCc3c(-c4c(Cl)cccc4Cl)noc3C3CC3)nc1C=C2F`: the concentration for a half-maximal effect (EC50) – broadly, the concentration at which the effect is half-maximal – on Bile acid receptor [11] stood at 17.3 nM; on Bile acid receptor [12], 219 nM.

On to `O=C(O)c1ccc2c(c1)Oc1ncc(OCc3c(-c4c(Cl)cccc4Cl)noc3C3CC3)cc1CC2`, for which, on Bile acid receptor [11], the EC50 came to 37 nM.

In the case of `CC1=Cc2nc(OCc3c(-c4c(Cl)cccc4Cl)noc3C3CC3)ccc2Oc2cc(C(=O)O)ccc21`, the concentration for a half-maximal effect (EC50) was 6.03 nM at Bile acid receptor [11] and 87.3 nM at Bile acid receptor [12].

Take `O=C(O)c1ccc2c(c1)Oc1ccc(OCc3c(-c4c(Cl)cccc4Cl)noc3C3CC3)nc1CC2`: the outcome in the data set with Mus musculus [1], with Mus musculus [3] and with Mus musculus [6] was Active. This molecule gave a bioavailability in data set [2] of 37.1%. In addition, the Activity entry in [13] is recorded as “Non-Toxic”. Besides, the values for the half-maximal effective concentration (EC50) on Bile acid receptor [11] and at Bile acid receptor [12] were 3.57 nM and 102 nM, respectively. For the same molecule, in data set [4], the Vd is 0.4 L/kg. In addition, the peak level in data set [5] (Cmax) was 3000 ng/mL. In addition, the clearance in data set [7] was determined as 14.3 mL/min/kg. Further, the exposure AUC(0-t) in data set [8] was determined as 1250 ng·h/mL; in [9], 1180 ng·h/mL. In [10], this molecule showed a half-life of 44.4 min.

For the molecule `O=C(O)c1cc(F)c2c(c1)Oc1ccc(OCc3c(-c4c(Cl)cccc4Cl)noc3C3CC3)nc1CC2`, on Bile acid receptor [12], the concentration giving a half-maximal response (EC50) was found to be 372 nM.

As for `O=C(O)c1ccc2c(c1)Oc1ccc(OCc3c(-c4c(Cl)cccc4Cl)noc3C3CC3)cc1CC2`, the Activity entry in data set [14] is given as “Toxic”. The concentration giving a half-maximal response (EC50) was 833 nM on Bile acid receptor [11] and 345 nM on Bile acid receptor [12].

For the molecule `O=C(O)c1ccc2c(c1)Oc1cnc(OCc3c(-c4c(Cl)cccc4Cl)noc3C3CC3)cc1CC2`, the EC50 at Bile acid receptor [11] came out at 11.7 nM; on Bile acid receptor [12], 161 nM.

Consider `O=C(O)c1ccc2c(c1)Oc1ccc(OCc3c(-c4c(Cl)cccc4Cl)noc3C3CC3)nc1CO2`, for which the EC50 at Bile acid receptor [11] was 14.3 nM; at Bile acid receptor [12], 114 nM.

As to `CC1Cc2ccc(C(=O)O)cc2Oc2ccc(OCc3c(-c4c(Cl)cccc4Cl)noc3C3CC3)nc21` (stereo unspecified), the result in the data set on Mus musculus [1], in the data set on Mus musculus [3] and in the data set on Mus musculus [6] was Active. This molecule also showed a bioavailability in [2] of 44.9%. Besides, the Vd in data set [4] is 0.54 L/kg. Besides, in data set [5], the Cmax (in general, the maximum level reached in the sampled fluid or tissue) came out at 1280 ng/mL. The same molecule registered a clearance in data set [7] of 30.3 mL/min/kg. Also, the results for the exposure AUC(0-t) in data set [8] and in data set [9] were 2230 ng·h/mL and 554 ng·h/mL, respectively. The half-life in data set [10] is 55.8 min.
